Source: US20240239766A1, “3-AMINO PIPERIDYL SODIUM CHANNEL INHIBITORS” (Genentech, Inc., priority 2021, published 2024)
Counter-ions that a name gives are not always drawn.

Biological target: hNav1.7 (Homo sapiens (Human), UniProt Q15858)
Assay: Patch voltage clamp electrophysiology assay (EP), Syncropatch 384PE, CHO cells expressing Nav1.7
Format: cell-based
Details: holding potential −50 mV; 7.5 min compound incubation; read-out: EP SP hNav1.7 EVO (IC50)
Description: Example 101c: Electrophysiological Assay (EP) (In Vitro Assay)
Patch voltage clamp electrophysiology allows for the direct measurement and quantification of block of voltage-gated sodium channels (NaV's), and allows the determination of the time- and voltage-dependence of block which has been interpreted as differential binding to the resting, open, and inactivated states of the sodium channel (Hille, B., Journal of General Physiology (1977), 69: 497-515).
The following voltage clamp electrophysiology studies are performed on representative compounds using cells heterologously expressing Nav1.7 or Nav1.5 channels. cDNAsfor Nav1.7 (NM_002977) and Nav1.5 (AC137587) are stably expressed in Chinese Hamstr Ovary (CHO) cells and CHL (Chinese Hamster Lung) cells respectively. Sodium currents are measured in the whole-cell configuration using Syncropatch 384PE (Nanlon Technologies, Germany). 1NPC®-384 chips with custom medium resistance and single hole mode are used. Internal solution consists of (in mM): […], 10 CsCl, 20 EGTA, and 10 Hepes (pH adjusted to 7.2); and external solution contains (in mM): 60 NMDG, 80 NaCl, 4 KCl, 1 MgCl2, 2 CaCl2), 2 D-Glucose monohydrate, 10 Hepes (pH adjusted to 7.4 with NaOH).
After system flushing, testing compounds are dissolved in external solution containing 0.1% Pluronic F-127. The chip is moved into the measuring head and the instrument primes the chip with external and internal solutions. 10 μl cells are added to the chip from a cell hotel, and a negative pressure of −50 mBar is applied to form a seal. Following treatment with seal enhancer solution and wash-off with external solution, negative pressure of −250 mbar is applied for 1 second to achieve the whole-cell configuration, followed by three washing steps in external solution. 20 μl of compounds is added to 40 μl in each well (1:3 dilution of compounds), and after mixing, 20 μl is removed so the volume is retained at 40 ul. After approximately 13 minutes recordings, 20 μl/well of 2 uM TTX, or 333 uM Tetracaine (for Nav1.5) is added to achieve full block.
For voltage protocol, an holding potential of −50 mV is applied during the whole experiment. A depolarizing step is applied to −10 mV for 10 ms, followed by a hyperpolarization step to −150 mV for 20 ms to allow channel recovery from inactivation. A second depolarizing step is applied from −150 mV to −10 mV for 10 ms, where currents are measured to derive blocking effects of compounds. Inhibition is determined based on 7.5 min of compound incubation.

hNav1.7, sequence (Q15858 other isoform, or with tags, fused parts or gaps): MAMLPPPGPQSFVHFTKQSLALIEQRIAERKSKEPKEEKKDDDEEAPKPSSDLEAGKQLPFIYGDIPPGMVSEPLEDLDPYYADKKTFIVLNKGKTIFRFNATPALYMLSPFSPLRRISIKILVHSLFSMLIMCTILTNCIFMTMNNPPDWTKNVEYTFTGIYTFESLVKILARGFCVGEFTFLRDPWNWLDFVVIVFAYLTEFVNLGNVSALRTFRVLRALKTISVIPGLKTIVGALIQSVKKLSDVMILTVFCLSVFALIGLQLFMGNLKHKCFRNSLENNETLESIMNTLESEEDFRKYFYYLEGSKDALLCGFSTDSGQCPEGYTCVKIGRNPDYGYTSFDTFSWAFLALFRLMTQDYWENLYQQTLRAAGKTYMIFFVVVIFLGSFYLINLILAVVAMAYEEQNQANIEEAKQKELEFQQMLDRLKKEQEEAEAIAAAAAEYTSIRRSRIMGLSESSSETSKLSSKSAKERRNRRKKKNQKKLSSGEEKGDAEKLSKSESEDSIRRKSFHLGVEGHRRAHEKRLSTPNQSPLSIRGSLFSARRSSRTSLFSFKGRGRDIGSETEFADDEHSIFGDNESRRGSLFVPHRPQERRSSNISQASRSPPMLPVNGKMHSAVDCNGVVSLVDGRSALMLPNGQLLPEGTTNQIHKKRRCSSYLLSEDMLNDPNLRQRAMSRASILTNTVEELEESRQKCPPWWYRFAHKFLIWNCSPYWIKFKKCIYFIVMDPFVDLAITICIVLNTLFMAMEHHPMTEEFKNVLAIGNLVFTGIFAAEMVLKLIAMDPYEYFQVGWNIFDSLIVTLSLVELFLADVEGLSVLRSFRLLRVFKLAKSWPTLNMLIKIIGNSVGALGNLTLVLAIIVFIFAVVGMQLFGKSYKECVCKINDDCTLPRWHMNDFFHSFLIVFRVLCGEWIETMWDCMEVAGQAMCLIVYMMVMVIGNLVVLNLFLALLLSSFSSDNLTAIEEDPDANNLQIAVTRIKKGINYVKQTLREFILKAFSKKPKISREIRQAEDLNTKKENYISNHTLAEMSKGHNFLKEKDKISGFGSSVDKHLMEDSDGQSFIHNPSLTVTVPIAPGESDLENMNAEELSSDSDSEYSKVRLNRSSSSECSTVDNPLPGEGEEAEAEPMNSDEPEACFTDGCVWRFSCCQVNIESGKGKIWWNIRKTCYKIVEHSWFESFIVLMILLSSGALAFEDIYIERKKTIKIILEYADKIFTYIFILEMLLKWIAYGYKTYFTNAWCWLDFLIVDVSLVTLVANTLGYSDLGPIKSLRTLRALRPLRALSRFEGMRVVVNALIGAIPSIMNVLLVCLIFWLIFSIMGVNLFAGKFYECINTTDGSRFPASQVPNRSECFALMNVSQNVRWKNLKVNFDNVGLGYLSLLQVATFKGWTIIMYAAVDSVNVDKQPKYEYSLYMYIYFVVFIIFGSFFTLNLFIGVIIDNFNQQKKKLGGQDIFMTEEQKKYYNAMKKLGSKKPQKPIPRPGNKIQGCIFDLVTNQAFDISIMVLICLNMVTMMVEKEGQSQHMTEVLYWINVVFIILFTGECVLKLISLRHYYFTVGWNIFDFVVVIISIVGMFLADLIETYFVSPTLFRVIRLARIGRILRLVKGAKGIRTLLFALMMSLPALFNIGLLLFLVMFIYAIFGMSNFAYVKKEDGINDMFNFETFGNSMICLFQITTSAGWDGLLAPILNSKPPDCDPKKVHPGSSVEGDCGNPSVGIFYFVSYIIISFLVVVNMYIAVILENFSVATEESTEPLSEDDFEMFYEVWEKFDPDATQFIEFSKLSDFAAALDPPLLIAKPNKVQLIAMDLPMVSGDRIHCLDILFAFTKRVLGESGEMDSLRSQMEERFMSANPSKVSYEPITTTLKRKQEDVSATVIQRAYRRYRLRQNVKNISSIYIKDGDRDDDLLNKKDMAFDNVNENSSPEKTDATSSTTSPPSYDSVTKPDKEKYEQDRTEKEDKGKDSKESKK

| Compound | IC50 |
| --- | --- |
| CN(C)[C@@]1(CCc2cccc(Cl)c2)CCCN(c2cc(F)c(S(=O)(=O)Nc3ccncn3)c(F)c2)C1 (single isomer, unassigned) [Example 90, formate] | 4460 nM |
| CN(C)[C@]1(CCc2cccc(Cl)c2)CCCN(c2cc(F)c(S(=O)(=O)Nc3ccncn3)c(F)c2)C1 (single isomer, unassigned) [Example 91, formate] | 11.6 nM |
| CN[C@]1(CCc2cccc(C(F)(F)F)c2)CCCN(c2ccc(S(=O)(=O)Nc3ccncn3)c(F)c2)C1 [Example 3, (R)-2-Fluoro-4-(3-(methylamino)-3-(3-(trifluoromethyl)-phenethyl)piperidin-1-yl)-N-(pyrimidin-4-yl)benzenesulfonamide] | 21.5 nM |
| Cc1cc(N2CCC[C@](CCc3cccc(C(F)(F)F)c3)(N(C)C)C2)cc(F)c1S(=O)(=O)Nc1ccncn1 [Example 9, (S)-4-(3-(Dimethylamino)-3-(3-(trifluoromethyl)phenethyl)-piperidin-1-yl)-2-fluoro-6-methyl-N-(pyrimidin-4-yl)benzenesulfonamide] | 597 nM |
| Cc1cc(N2CCC[C@@](CCc3cccc(C(F)(F)F)c3)(N(C)C)C2)cc(F)c1S(=O)(=O)Nc1ccncn1 [Example 10, (R)-4-(3-(Dimethylamino)-3-(3-(trifluoromethyl)-phenethyl)piperidin-1-yl)-2-fluoro-6-methyl-N-(pyrimidin-4-yl)benzenesulfonamide] | 2.66 nM |
| CN1CCC(CN(C)C2(CCc3cccc(C(F)(F)F)c3)CCCN(c3ccc(S(=O)(=O)Nc4ccncn4)c(F)c3)C2)C1 (stereo not shown) [Example 31, 2-Fluoro-4-(3-(methyl((1-methylpyrrolidin-3-yl)methyl)amino)-3-(3-(trifluoromethyl)phenethyl)piperidin-1-yl)-N-(pyrimidin-4-yl)benzenesulfonamide formate] | 8.59 nM |
| CN1CC(N(C)[C@]2(CCc3cccc(C(F)(F)F)c3)CCCN(c3ccc(S(=O)(=O)Nc4ccncn4)c(F)c3)C2)C1 [Example 35, (R)-2-Fluoro-4-(3-(methyl(1-methylazetidin-3-yl)amino)-3-(3-(trifluoromethyl)phenethyl)piperidin-1-yl)-N-(pyrimidin-4-yl)benzenesulfonamide] | 40.7 nM |
| CN(C)[C@@]1(CCc2cccc(C(F)(F)F)c2Cl)CCCN(c2cc(F)c(S(=O)(=O)Nc3ccncn3)c(F)c2)C1 [Example 40, (S)-4-(3-(2-Chloro-3-(trifluoromethyl)phenethyl)-3-(dimethylamino)piperidin-1-yl)-2,6-difluoro-N-(pyrimidin-4-yl)benzenesulfonamide] | 531 nM |
| CN(C)[C@]1(CCc2cc(Cl)cc(C(F)(F)F)c2)CCCN(c2cc(F)c(S(=O)(=O)Nc3ccncn3)c(F)c2)C1 [Example 43, (R)-4-(3-(3-Chloro-5-(trifluoromethyl)phenethyl)-3-(dimethylamino)piperidin-1-yl)-2,6-difluoro-N-(pyrimidin-4-yl)benzenesulfonamide] | 0.443 nM |
| CN(C)[C@@]1(C[C@@H]2CCc3ccc(C(F)(F)F)cc32)CCCN(c2cc(F)c(S(=O)(=O)Nc3ccncn3)c(F)c2)C1 [Example 46, 4-((R)-3-(Dimethylamino)-3-(((S)-6-(trifluoromethyl)-2,3-dihydro-1H-inden-1-yl)methyl)piperidin-1-yl)-2,6-difluoro-N-(pyrimidin-4-yl)benzenesulfonamide formate] | 1320 nM |
| CN(C)[C@@]1(C[C@H]2CCc3ccc(C(F)(F)F)cc32)CCCN(c2cc(F)c(S(=O)(=O)Nc3ccncn3)c(F)c2)C1 [Example 47, 4-((R)-3-(Dimethylamino)-3-(((R)-6-(trifluoromethyl)-2,3-dihydro-1H-inden-1-yl)methyl)piperidin-1-yl)-2,6-difluoro-N-(pyrimidin-4-yl)benzenesulfonamide formate] | 307 nM |
| CN(C)[C@]1(C[C@H]2CCc3ccc(C(F)(F)F)cc32)CCCN(c2cc(F)c(S(=O)(=O)Nc3ccncn3)c(F)c2)C1 [Example 48, 4-((S)-3-(Dimethylamino)-3-(((R)-6-(trifluoromethyl)-2,3-dihydro-1H-inden-1-yl)methyl)piperidin-1-yl)-2,6-difluoro-N-(pyrimidin-4-yl)benzenesulfonamide formate] | 1.55 nM |
| CN(C)[C@]1(C[C@@H]2CCc3ccc(C(F)(F)F)cc32)CCCN(c2cc(F)c(S(=O)(=O)Nc3ccncn3)c(F)c2)C1 [Example 49, 4-((S)-3-(Dimethylamino)-3-(((S)-6-(trifluoromethyl)-2,3-dihydro-1H-inden-1-yl)methyl)piperidin-1-yl)-2,6-difluoro-N-(pyrimidin-4-yl)benzenesulfonamide formate] | 11.1 nM |
| CN(C)[C@@]1(CCC2CCCCC2)CCCN(c2cc(F)c(S(=O)(=O)Nc3ccncn3)c(F)c2)C1 [Example 92, (S)-4-(3-(2-Cyclohexylethyl)-3-(dimethylamino)piperidin-1-yl)-2,6-difluoro-N-(pyrimidin-4-yl)benzenesulfonamide formate] | 3.82 nM |
| CN(C)[C@]1(CCC2CCCCC2)CCCN(c2cc(F)c(S(=O)(=O)Nc3ccncn3)c(F)c2)C1 [Example 93, (R)-4-(3-(2-Cyclohexylethyl)-3-(dimethylamino)piperidin-1-yl)-2,6-difluoro-N-(pyrimidin-4-yl)benzenesulfonamide formate] | 245 nM |
| CN(C)[C@@]1(C2CC(c3cccc(C(F)(F)F)c3)C2)CCCN(c2cc(F)c(S(=O)(=O)Nc3ccncn3)c(F)c2)C1 (stereo partly drawn) [Example 94, 4-((R)-3-(Dimethylamino)-3-((1r,3R)-3-(3-(trifluoromethyl)phenyl)-cyclobutyl)piperidin-1-yl)-2,6-difluoro-N-(pyrimidin-4-yl)benzenesulfonamide] | 127 nM |
| CN(C)C1(C2CC(c3cccc(C(F)(F)F)c3)C2)CCCN(c2cc(F)c(S(=O)(=O)Nc3ccncn3)c(F)c2)C1 (stereo not shown) [Example 95, 4-(3-(Dimethylamino)-3-(3-(3-(trifluoromethyl)phenyl)-cyclobutyl)piperidin-1-yl)-2,6-difluoro-N-(pyrimidin-4-yl)benzenesulfonamide] | 14.1 nM |
| CN(C)[C@]1(C2CC(c3cccc(C(F)(F)F)c3)C2)CCCN(c2cc(F)c(S(=O)(=O)Nc3ccncn3)c(F)c2)C1 (stereo partly drawn) [Example 96, 4-((S)-3-(Dimethylamino)-3-((1s,3R)-3-(3-(trifluoromethyl)-phenyl)cyclobutyl)piperidin-1-yl)-2,6-difluoro-N-(pyrimidin-4-yl)benzenesulfonamide] | 1.81 nM |
| CN(C)[C@@]1(CCc2cccc(C(F)(F)F)n2)CCCN(c2cc(F)c(S(=O)(=O)Nc3ccncn3)c(F)c2)C1 [Example 97, (R)-4-(3-(Dimethylamino)-3-(2-(6-(trifluoromethyl)pyridin-2-yl)ethyl)-piperidin-1-yl)-2,6-difluoro-N-(pyrimidin-4-yl)benzenesulfonamide formate] | 10000 nM |
| CN(C)[C@]1(CCc2cccc(C(F)(F)F)n2)CCCN(c2cc(F)c(S(=O)(=O)Nc3ccncn3)c(F)c2)C1 [Example 98, (S)-4-(3-(Dimethylamino)-3-(2-(6-(trifluoromethyl)pyridin-2-yl)ethyl)piperidin-1-yl)-2,6-difluoro-N-(pyrimidin-4-yl)benzenesulfonamide formate] | 62.5 nM |
| CN(C)[C@@]1(CC2CCCC2)CCCN(c2cc(F)c(S(=O)(=O)Nc3ccncn3)c(F)c2)C1 [Example 99, (R)-4-(3-(Cyclopentylmethyl)-3-(dimethylamino)piperidin-1-yl)-2,6-difluoro-N-(pyrimidin-4-yl)benzenesulfonamide] | 8950 nM |
| CN(C)[C@]1(CC2CCCC2)CCCN(c2cc(F)c(S(=O)(=O)Nc3ccncn3)c(F)c2)C1 [Example 100, (S)-4-(3-(Cyclopentylmethyl)-3-(dimethylamino)piperidin-1-yl)-2,6-difluoro-N-(pyrimidin-4-yl)benzenesulfonamide] | 130 nM |
